By IC50 is commonly meant the concentration at which inhibition is half-maximal.

Some results are limits rather than exact numbers.

T1 sequence (Q15858 whole entry): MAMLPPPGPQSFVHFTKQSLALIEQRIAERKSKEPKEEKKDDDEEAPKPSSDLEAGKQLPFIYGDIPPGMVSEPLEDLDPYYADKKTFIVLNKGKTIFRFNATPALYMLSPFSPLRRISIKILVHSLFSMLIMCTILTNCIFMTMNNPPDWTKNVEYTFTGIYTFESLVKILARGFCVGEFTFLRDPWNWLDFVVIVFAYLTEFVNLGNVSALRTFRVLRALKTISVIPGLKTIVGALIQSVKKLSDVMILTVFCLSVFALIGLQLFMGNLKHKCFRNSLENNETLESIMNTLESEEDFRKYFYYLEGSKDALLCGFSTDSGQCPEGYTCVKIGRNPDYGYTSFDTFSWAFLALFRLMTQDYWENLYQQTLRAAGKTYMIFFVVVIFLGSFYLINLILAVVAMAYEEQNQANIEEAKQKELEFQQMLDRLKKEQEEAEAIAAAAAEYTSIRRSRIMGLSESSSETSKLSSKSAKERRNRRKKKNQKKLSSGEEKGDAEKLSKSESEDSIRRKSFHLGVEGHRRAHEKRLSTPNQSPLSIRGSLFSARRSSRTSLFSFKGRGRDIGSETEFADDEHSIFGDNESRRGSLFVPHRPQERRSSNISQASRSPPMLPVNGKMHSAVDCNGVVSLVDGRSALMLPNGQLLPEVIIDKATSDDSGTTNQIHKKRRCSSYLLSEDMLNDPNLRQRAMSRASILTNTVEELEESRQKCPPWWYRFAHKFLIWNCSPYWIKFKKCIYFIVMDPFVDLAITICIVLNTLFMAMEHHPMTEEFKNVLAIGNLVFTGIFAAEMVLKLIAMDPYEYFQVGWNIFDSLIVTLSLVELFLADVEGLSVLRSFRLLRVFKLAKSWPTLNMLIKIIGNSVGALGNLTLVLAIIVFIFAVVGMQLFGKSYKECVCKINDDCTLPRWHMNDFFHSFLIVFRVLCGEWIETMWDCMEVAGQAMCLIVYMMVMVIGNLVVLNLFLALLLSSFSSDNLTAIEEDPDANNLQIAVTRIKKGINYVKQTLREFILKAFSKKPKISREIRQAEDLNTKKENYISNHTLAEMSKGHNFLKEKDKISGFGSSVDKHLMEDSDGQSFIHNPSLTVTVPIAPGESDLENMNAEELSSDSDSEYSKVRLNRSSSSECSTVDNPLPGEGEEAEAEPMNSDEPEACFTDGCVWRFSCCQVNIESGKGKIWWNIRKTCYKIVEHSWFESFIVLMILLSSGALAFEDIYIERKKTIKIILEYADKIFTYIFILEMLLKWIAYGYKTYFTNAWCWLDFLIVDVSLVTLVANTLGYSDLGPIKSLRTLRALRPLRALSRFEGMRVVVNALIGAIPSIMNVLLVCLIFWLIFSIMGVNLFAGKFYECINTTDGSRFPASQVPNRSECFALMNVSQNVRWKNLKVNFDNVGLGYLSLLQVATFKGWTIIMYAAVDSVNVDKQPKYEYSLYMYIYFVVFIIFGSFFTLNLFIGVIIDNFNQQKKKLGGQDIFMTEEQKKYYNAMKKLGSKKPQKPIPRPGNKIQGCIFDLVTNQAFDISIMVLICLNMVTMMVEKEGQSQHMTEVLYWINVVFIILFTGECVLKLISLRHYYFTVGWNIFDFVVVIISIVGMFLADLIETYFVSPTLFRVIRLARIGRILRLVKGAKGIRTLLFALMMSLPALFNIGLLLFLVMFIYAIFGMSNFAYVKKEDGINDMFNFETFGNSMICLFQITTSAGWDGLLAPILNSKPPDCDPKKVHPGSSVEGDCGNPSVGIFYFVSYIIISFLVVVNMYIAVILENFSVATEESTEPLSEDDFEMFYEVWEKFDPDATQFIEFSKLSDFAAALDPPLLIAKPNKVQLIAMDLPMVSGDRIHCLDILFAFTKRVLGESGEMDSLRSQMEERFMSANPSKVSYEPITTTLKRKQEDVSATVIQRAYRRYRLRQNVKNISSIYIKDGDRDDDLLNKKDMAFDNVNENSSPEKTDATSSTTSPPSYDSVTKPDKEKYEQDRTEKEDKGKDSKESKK

This test addresses T1, Nav1.7 (or SCN9A) channel; HEK cells stably transfected with hSCN9A (Homo sapiens, UniProt Q15858).
T1 construct: expressed in transfected cells
As to the kind of experiment: Nav1.7 block, PatchXpress 7000 automated whole-cell voltage clamp, estimated IC50 (EIC50). It is filed as cell-based. Conditions: estimated IC50; hSCN9A HEK cells, PatchXpress platform; Examples 815-1040.
Turning to `O=S(=O)(Nc1ncns1)c1cc(F)c(Oc2ccc(C(F)(F)F)cc2-c2cccnn2)cc1F` [Example 920, 2,5-difluoro-4-[2-pyridazin-3-yl-4-(trifluoromethyl)phenoxy]-N-1,2,4-thiadiazol-5-ylbenzenesulfonamide], the IC50 is 310 nM.
`Cn1nccc1-c1cc(Cl)ccc1Oc1ccc(S(=O)(=O)Nc2cnsn2)cc1C#N` [Example 921, 4-[4-chloro-2-(1-methyl-1H-pyrazol-5-yl)phenoxy]-3-cyano-N-1,2,5-thiadiazol-3-ylbenzenesulfonamide]: the IC50 is 3900 nM.
The result for `Cn1nccc1-c1cc(Cl)ccc1Oc1ccc(S(=O)(=O)Nc2cc[nH]n2)cc1C#N` [Example 922, 4-[4-chloro-2-(1-methyl-1H-pyrazol-5-yl)phenoxy]-3-cyano-N-1H-pyrazol-3-ylbenzenesulfonamide] reads >10000 nM; that for `Cn1nccc1-c1cc(Cl)ccc1Oc1ccc(S(=O)(=O)Nc2cccnc2)cc1C#N` [Example 923, 4-[4-chloro-2-(1-methyl-1H-pyrazol-5-yl)phenoxy]-3-cyano-N-pyridin-3-ylbenzenesulfonamide], >10000 nM.
The result for `N#Cc1cc(S(=O)(=O)Nc2ncns2)ccc1Oc1cc(F)c(Cl)cc1-c1ccnnc1` [Example 924, 4-(4-chloro-5-fluoro-2-pyridazin-4-ylphenoxy)-3-cyano-N-1,2,4-thiadiazol-5-ylbenzenesulfonamide] reads 19 nM.
In the case of `N#Cc1ccc(Oc2cc(F)c(S(=O)(=O)Nc3nncs3)cc2Cl)c(-c2ccnnc2)c1` [Example 925, 5-chloro-4-(4-cyano-2-pyridazin-4-ylphenoxy)-2-fluoro-N-1,3,4-thiadiazol-2-ylbenzenesulfonamide], the IC50 is 660 nM.
Next, `Nc1cc(-c2cc(Cl)ccc2Oc2cc(F)c(S(=O)(=O)Nc3ncccn3)cc2Cl)ccn1` [Example 926, 4-[2-(2-aminopyridin-4-yl)-4-chlorophenoxy]-5-chloro-2-fluoro-N-pyrimidin-2-ylbenzenesulfonamide]: 67 nM.
As to `Cn1nccc1-c1cc(Cl)ccc1Oc1ncc(S(=O)(=O)Nc2ncns2)cc1Cl` [Example 927, 5-chloro-6-[4-chloro-2-(1-methyl-1H-pyrazol-5-yl)phenoxy]-N-1,2,4-thiadiazol-5-ylpyridine-3-sulfonamide], the IC50 is 120 nM.
`O=S(=O)(Nc1ncns1)c1ccc(Oc2ccc(C(F)(F)F)cc2-c2ccnnc2)c(Cl)c1` [Example 928, 3-chloro-4-[2-pyridazin-4-yl-4-(trifluoromethyl)phenoxy]-N-1,2,4-thiadiazol-5-ylbenzenesulfonamide]: the IC50 is 3.6 nM.
Turning to `O=S(=O)(Nc1ncns1)c1ccc(Oc2ccc(C(F)(F)F)cc2-c2ccnnc2)c(F)c1` [Example 929, 3-fluoro-4-[2-pyridazin-4-yl-4-(trifluoromethyl)phenoxy]-N-1,2,4-thiadiazol-5-ylbenzenesulfonamide], the IC50 is 100 nM.
The result for `O=S(=O)(Nc1ncns1)c1ccc(Oc2cc(F)c(Cl)cc2-c2ccnnc2)c(F)c1` [Example 930, 4-(4-chloro-5-fluoro-2-pyridazin-4-ylphenoxy)-3-fluoro-N-1,2,4-thiadiazol-5-ylbenzenesulfonamide] reads 230 nM; that for `O=S(=O)(Nc1ncns1)c1cc(F)c(Oc2ccc(F)cc2-c2ccnnc2)cc1F` [Example 931, 2,5-difluoro-4-(4-fluoro-2-pyridazin-4-ylphenoxy)-N-1,2,4-thiadiazol-5-ylbenzenesulfonamide], 140 nM; that for `O=S(=O)(Nc1nncs1)c1cc(Cl)c(Oc2ccc(OC(F)(F)F)cc2-c2ccnnc2)cc1F` [Example 932, 5-chloro-2-fluoro-4-[2-pyridazin-4-yl-4-(trifluoromethoxy)phenoxy]-N-1,3,4-thiadiazol-2-ylbenzenesulfonamide], 75 nM.
The result for `N#Cc1cc(S(=O)(=O)Nc2nncs2)ccc1Oc1ccc(OC(F)(F)F)cc1-c1ccnnc1` [Example 933, 3-cyano-4-[2-pyridazin-4-yl-4-(trifluoromethoxy)phenoxy]-N-1,3,4-thiadiazol-2-ylbenzenesulfonamide] reads >100 nM; that for `O=S(=O)(Nc1ncns1)c1ccc(Oc2cc(Cl)c(F)cc2-c2ccnnc2)c(F)c1` [Example 934, 4-(5-chloro-4-fluoro-2-pyridazin-4-ylphenoxy)-3-fluoro-N-1,2,4-thiadiazol-5-ylbenzenesulfonamide], 53 nM.
Next, `N#Cc1cc(S(=O)(=O)Nc2ncns2)ccc1Oc1ccc(C(F)(F)F)cc1-c1ccnn1C1CNC1` [Example 935, 4-[2-(1-azetidin-3-yl-1H-pyrazol-5-yl)-4-(trifluoromethyl)phenoxy]-3-cyano-N-1,2,4-thiadiazol-5-ylbenzenesulfonamide]: 3.8 nM; `O=S(=O)(Nc1ncns1)c1cc(F)c(Oc2cc(F)c(Cl)cc2-c2ccnnc2)cc1F` [Example 936, 4-(4-chloro-5-fluoro-2-pyridazin-4-ylphenoxy)-2,5-difluoro-N-1,2,4-thiadiazol-5-ylbenzenesulfonamide]: 8 nM.
For `O=S(=O)(Nc1ncns1)c1cc(F)c(Oc2cc(Cl)c(F)cc2-c2ccnnc2)cc1F` [Example 937, 4-(5-chloro-4-fluoro-2-pyridazin-4-ylphenoxy)-2,5-difluoro-N-1,2,4-thiadiazol-5-ylbenzenesulfonamide], the IC50 is 19 nM.
The result for `N#Cc1cc(S(=O)(=O)Nc2ncns2)ccc1Oc1cc(Cl)c(F)cc1-c1ccnnc1` [Example 938, 4-(5-chloro-4-fluoro-2-pyridazin-4-ylphenoxy)-3-cyano-N-1,2,4-thiadiazol-5-ylbenzenesulfonamide] reads 25 nM.
The result for `O=S(=O)(Nc1nncs1)c1cc(Cl)c(Oc2cc(C(F)(F)F)ccc2-c2ccnnc2)cc1F` [Example 939, 5-chloro-2-fluoro-4-[2-pyridazin-4-yl-5-(trifluoromethyl)phenoxy]-N-1,3,4-thiadiazol-2-ylbenzenesulfonamide] reads 48 nM.
Regarding `N#Cc1cc(S(=O)(=O)Nc2ncns2)ccc1Oc1cc(C(F)(F)F)ccc1-c1ccnnc1` [Example 940, 3-cyano-4-[2-pyridazin-4-yl-5-(trifluoromethyl)phenoxy]-N-1,2,4-thiadiazol-5-ylbenzenesulfonamide], the IC50 is 31 nM.
Next, `O=S(=O)(Nc1ncccn1)c1cc(Cl)c(Oc2ccc(Cl)cc2-c2ccnnc2)cc1F` [Example 941, 5-chloro-4-(4-chloro-2-pyridazin-4-ylphenoxy)-2-fluoro-N-pyrimidin-2-ylbenzenesulfonamide]: 72 nM.
For the compound `O=S(=O)(Nc1nncs1)c1ccc(Oc2ccc(OC(F)(F)F)cc2-c2ccnnc2)c(Cl)c1` [Example 942, 3-chloro-4-[2-pyridazin-4-yl-4-(trifluoromethoxy)phenoxy]-N-1,3,4-thiadiazol-2-ylbenzenesulfonamide], the IC50 was 35 nM.
The result for `Cc1cc(S(=O)(=O)Nc2nncs2)c(F)cc1Oc1ccc(Cl)cc1-c1ccnnc1` [Example 943, 4-(4-chloro-2-pyridazin-4-ylphenoxy)-2-fluoro-5-methyl-N-1,3,4-thiadiazol-2-ylbenzenesulfonamide] reads 77 nM.
Next, `Nc1cc(-c2cc(Cl)ccc2Oc2ccc(S(=O)(=O)Nc3ccncn3)cc2Cl)ccn1` [Example 944, 4-[2-(2-aminopyridin-4-yl)-4-chlorophenoxy]-3-chloro-N-pyrimidin-4-ylbenzenesulfonamide]: 31 nM.
Next, `O=S(=O)(Nc1ncccn1)c1cc(Cl)c(Oc2ccc(OC(F)(F)F)cc2-c2ccnnc2)cc1F` [Example 945, 5-chloro-2-fluoro-4-[2-pyridazin-4-yl-4-(trifluoromethoxy)phenoxy]-N-pyrimidin-2-ylbenzenesulfonamide]: 99 nM.
Take `N#Cc1cc(S(=O)(=O)Nc2nncs2)ccc1Oc1ccc(C(F)(F)F)cc1-c1ccnnc1` [Example 946, 3-cyano-4-[2-pyridazin-4-yl-4-(trifluoromethyl)phenoxy]-N-1,3,4-thiadiazol-2-ylbenzenesulfonamide]: the IC50 was 230 nM.
As to `O=S(=O)(Nc1nncs1)c1cc(Cl)c(Oc2cc(C(F)(F)F)c(F)cc2-c2ccnnc2)cc1F` [Example 947, 5-chloro-2-fluoro-4-[4-fluoro-2-pyridazin-4-yl-5-(trifluoromethyl)phenoxy]-N-1,3,4-thiadiazol-2-ylbenzenesulfonamide], the IC50 is 23 nM.
With `N#Cc1cc(S(=O)(=O)Nc2ncns2)ccc1Oc1cc(C(F)(F)F)c(F)cc1-c1ccnnc1` [Example 948, 3-cyano-4-[4-fluoro-2-pyridazin-4-yl-5-(trifluoromethyl)phenoxy]-N-1,2,4-thiadiazol-5-ylbenzenesulfonamide], the IC50 was 11 nM.
Next, `Nc1cc(-c2cc(F)ccc2Oc2cc(F)c(S(=O)(=O)Nc3ncccn3)cc2Cl)ccn1` [Example 949, 4-[2-(2-aminopyridin-4-yl)-4-fluorophenoxy]-5-chloro-2-fluoro-N-pyrimidin-2-ylbenzenesulfonamide]: 87 nM; `Cn1nccc1-c1cc(Cl)ccc1Oc1ccc(S(=O)(=O)Nc2ncns2)cn1` [Example 950, 6-[4-chloro-2-(1-methyl-1H-pyrazol-5-yl)phenoxy]-N-1,2,4-thiadiazol-5-ylpyridine-3-sulfonamide]: 2700 nM; `N#Cc1ccc(-c2ccnnc2)c(Oc2cc(F)c(S(=O)(=O)Nc3ncns3)cc2Cl)c1` [Example 951, 5-chloro-4-(5-cyano-2-pyridazin-4-ylphenoxy)-2-fluoro-N-1,2,4-thiadiazol-5-ylbenzenesulfonamide]: 40 nM.
Next, `N#Cc1cc(S(=O)(=O)Nc2cscn2)ccc1Oc1ccc(C(F)(F)F)cc1-c1ccnnc1` [Example 953, 3-cyano-4-[2-pyridazin-4-yl-4-(trifluoromethyl)phenoxy]-N-1,3-thiazol-4-ylbenzenesulfonamide]: 110 nM; `O=S(=O)(Nc1cscn1)c1cc(F)c(Oc2ccc(C(F)(F)F)cc2-c2ccnnc2)cc1F` [Example 954, 2,5-difluoro-4-[2-pyridazin-4-yl-4-(trifluoromethyl)phenoxy]-N-1,3-thiazol-4-ylbenzenesulfonamide]: 240 nM.

The values above are taken from US8541588B2, “Sulfonamide derivatives” (Pfizer Limited, priority 2009, dated 2013).
